According to US20240383913A1, “THIOPHENE RING COMPOUND, PREPARATION METHOD THEREFOR AND APPLICATION THEREOF” (CENTER FOR EXCELLENCE IN MOLECULAR CELL SCIENCE, CHINESE …, priority 2021, published 2024):

Test system: hyperlocomotion of the mice induced by MK801
Test: Open field test, hyperlocomotion induced by MK801
Type: in vivo, C57B6 male mice
Settings: for Distance travelled (cm): 5-minute bin
Protocol: Experimental method: The experimental animals were C57B6 male mice, n=8 in each group. This model used C57B6 mice as experimental animals. Hyperlocomotion of the mice in open field was induced by acute injection of a NMDA antagonist MK801. and modeled to test the inhibitory effect of different compounds on hyperkinesia phenotype induced by MK801. All mouse behavior experiments were carried out during the light period, and the whole process was recorded by the camera and locomotive data were tracked and analyzed by behavioral tracking software. The compounds were administered intraperitoneally. Immediately after the injection, the mice entered the open field and their movement trajectories were recorded by the camera. After 30 minutes, the mice received 0.2 mg/kg of MK801 by intraperitoneal injection and returned to the open field immediately after administration and the movement trajectories were further recorded for 120 minutes. The accumulative travelled distance of the mice was counted in a 5-minute bin. Data statistics were performed using Student-t-test analysis, *p<0.05, ** p<0.01, *** p<0.001, **** p<0.0001.

CN(C)C(=O)N[C@H]1CC[C@H](CCN2CCN3c4cccc5scc(c45)CC3C2)CC1 (single isomer, unassigned; (-)) [(−)-I-27]
Distance travelled (cm) ((−)-I-27 0.2 mg/kg i.p. + MK801 0.2 mg/kg, 55 minutes after MK801): 547.84 ± 71.53 cm | Distance travelled (cm) ((−)-I-27 0.2 mg/kg i.p. + MK801 0.2 mg/kg, 60 minutes after MK801): 707.09 ± 102.86 cm | Distance travelled (cm) ((−)-I-27 0.2 mg/kg i.p. + MK801 0.2 mg/kg, 65 minutes after MK801): 653.46 ± 142.7 cm | Distance travelled (cm) ((−)-I-27 0.2 mg/kg i.p. + MK801 0.2 mg/kg, 70 minutes after MK801): 449.29 ± 121.61 cm | Distance travelled (cm) ((−)-I-27 0.2 mg/kg i.p. + MK801 0.2 mg/kg, 75 minutes after MK801): 564.58 ± 153.01 cm | Distance travelled (cm) ((−)-I-27 0.2 mg/kg i.p. + MK801 0.2 mg/kg, 80 minutes after MK801): 501.93 ± 119.91 cm | Distance travelled (cm) ((−)-I-27 0.2 mg/kg i.p. + MK801 0.2 mg/kg, 85 minutes after MK801): 471.35 ± 107.44 cm | Distance travelled (cm) ((−)-I-27 0.2 mg/kg i.p. + MK801 0.2 mg/kg, 90 minutes after MK801): 399.78 ± 105.26 cm | Distance travelled (cm) ((−)-I-27 0.2 mg/kg i.p. + MK801 0.2 mg/kg, 95 minutes after MK801): 301.32 ± 70.58 cm | Distance travelled (cm) ((−)-I-27 0.2 mg/kg i.p. + MK801 0.2 mg/kg, 100 minutes after MK801): 268.55 ± 74.28 cm | Distance travelled (cm) ((−)-I-27 0.2 mg/kg i.p. + MK801 0.2 mg/kg, 105 minutes after MK801): 299.24 ± 98.85 cm | Distance travelled (cm) ((−)-I-27 0.2 mg/kg i.p. + MK801 0.2 mg/kg, 110 minutes after MK801): 378.85 ± 88.69 cm | Distance travelled (cm) ((−)-I-27 0.2 mg/kg i.p. + MK801 0.2 mg/kg, 115 minutes after MK801): 236.86 ± 61.21 cm | Distance travelled (cm) ((−)-I-27 0.2 mg/kg i.p. + MK801 0.2 mg/kg, 120 minutes after MK801): 183.04 ± 51.72 cm | Distance travelled (cm) ((−)-I-27 0.2 mg/kg i.p., 0 minutes, before MK801): 426.03 ± 34.51 cm | Distance travelled (cm) ((−)-I-27 0.2 mg/kg i.p., −5 minutes, before MK801): 420.23 ± 44.8 cm | Distance travelled (cm) ((−)-I-27 0.2 mg/kg i.p., −10 minutes, before MK801): 462.71 ± 40.83 cm | Distance travelled (cm) ((−)-I-27 0.2 mg/kg i.p., −15 minutes, before MK801): 534.93 ± 50.26 cm | Distance travelled (cm) ((−)-I-27 0.2 mg/kg i.p., −20 minutes, before MK801): 614.02 ± 31.52 cm | Distance travelled (cm) ((−)-I-27 0.2 mg/kg i.p., −25 minutes, before MK801): 741.08 ± 56.17 cm | Distance (cm) travelled in 45 minutes ((−)-I-27 0.4 mg/kg i.p. + MK801 0.2 mg/kg, 0-45 minute interval after MK-801): 4056.3 cm | Distance travelled (cm) ((−)-I-27 0.4 mg/kg i.p. + MK801 0.2 mg/kg, 5 minutes after MK801): 479.22 ± 57.64 cm | Distance travelled (cm) ((−)-I-27 0.4 mg/kg i.p. + MK801 0.2 mg/kg, 10 minutes after MK801): 277.07 ± 32.68 cm | Distance travelled (cm) ((−)-I-27 0.4 mg/kg i.p. + MK801 0.2 mg/kg, 15 minutes after MK801): 316.03 ± 70.39 cm | Distance travelled (cm) ((−)-I-27 0.4 mg/kg i.p. + MK801 0.2 mg/kg, 20 minutes after MK801): 370.1 ± 75.27 cm | Distance travelled (cm) ((−)-I-27 0.4 mg/kg i.p. + MK801 0.2 mg/kg, 25 minutes after MK801): 403.74 ± 108.16 cm | Distance travelled (cm) ((−)-I-27 0.4 mg/kg i.p. + MK801 0.2 mg/kg, 30 minutes after MK801): 584.67 ± 129.63 cm | Distance travelled (cm) ((−)-I-27 0.4 mg/kg i.p. + MK801 0.2 mg/kg, 35 minutes after MK801): 633.6 ± 143.49 cm | Distance travelled (cm) ((−)-I-27 0.4 mg/kg i.p. + MK801 0.2 mg/kg, 40 minutes after MK801): 483.45 ± 104.6 cm | Distance travelled (cm) ((−)-I-27 0.4 mg/kg i.p. + MK801 0.2 mg/kg, 45 minutes after MK801): 508.42 ± 110.56 cm | Distance travelled (cm) ((−)-I-27 0.4 mg/kg i.p. + MK801 0.2 mg/kg, 50 minutes after MK801): 541.28 ± 85 cm | Distance travelled (cm) ((−)-I-27 0.4 mg/kg i.p. + MK801 0.2 mg/kg, 55 minutes after MK801): 483.29 ± 71.91 cm | Distance travelled (cm) ((−)-I-27 0.4 mg/kg i.p. + MK801 0.2 mg/kg, 60 minutes after MK801): 421.36 ± 61.47 cm | Distance travelled (cm) ((−)-I-27 0.4 mg/kg i.p. + MK801 0.2 mg/kg, 65 minutes after MK801): 371.77 ± 42.78 cm | Distance travelled (cm) ((−)-I-27 0.4 mg/kg i.p. + MK801 0.2 mg/kg, 70 minutes after MK801): 347.51 ± 55.13 cm | Distance travelled (cm) ((−)-I-27 0.4 mg/kg i.p. + MK801 0.2 mg/kg, 75 minutes after MK801): 296.62 ± 78.74 cm | Distance travelled (cm) ((−)-I-27 0.4 mg/kg i.p. + MK801 0.2 mg/kg, 80 minutes after MK801): 244.49 ± 76.54 cm | Distance travelled (cm) ((−)-I-27 0.4 mg/kg i.p. + MK801 0.2 mg/kg, 85 minutes after MK801): 160.39 ± 34.08 cm | Distance travelled (cm) ((−)-I-27 0.4 mg/kg i.p. + MK801 0.2 mg/kg, 90 minutes after MK801): 386.57 ± 158.41 cm | Distance travelled (cm) ((−)-I-27 0.4 mg/kg i.p. + MK801 0.2 mg/kg, 95 minutes after MK801): 201.39 ± 68.43 cm | Distance travelled (cm) ((−)-I-27 0.4 mg/kg i.p. + MK801 0.2 mg/kg, 100 minutes after MK801): 234.28 ± 63.3 cm | Distance travelled (cm) ((−)-I-27 0.4 mg/kg i.p. + MK801 0.2 mg/kg, 105 minutes after MK801): 229.02 ± 63.13 cm | Distance travelled (cm) ((−)-I-27 0.4 mg/kg i.p. + MK801 0.2 mg/kg, 110 minutes after MK801): 210.95 ± 45.58 cm | Distance travelled (cm) ((−)-I-27 0.4 mg/kg i.p. + MK801 0.2 mg/kg, 115 minutes after MK801): 323.92 ± 121.74 cm | Distance travelled (cm) ((−)-I-27 0.4 mg/kg i.p. + MK801 0.2 mg/kg, 120 minutes after MK801): 324.23 ± 68.48 cm | Distance travelled (cm) ((−)-I-27 0.4 mg/kg i.p., 0 minutes, before MK801): 441.97 ± 55.83 cm | Distance travelled (cm) ((−)-I-27 0.4 mg/kg i.p., −5 minutes, before MK801): 317.51 ± 24.51 cm | Distance travelled (cm) ((−)-I-27 0.4 mg/kg i.p., −10 minutes, before MK801): 419.17 ± 56.13 cm | Distance travelled (cm) ((−)-I-27 0.4 mg/kg i.p., −15 minutes, before MK801): 374.1 ± 25.44 cm | Distance travelled (cm) ((−)-I-27 0.4 mg/kg i.p., −20 minutes, before MK801): 475.66 ± 9.82 cm | Distance travelled (cm) ((−)-I-27 0.4 mg/kg i.p., −25 minutes, before MK801): 903.06 ± 46.43 cm
